Usually EC50 stands for the concentration at which the effect is half-maximal. Read a low EC50 as an effect from little substance. Usually Ki stands for a measure of affinity in units of concentration, obtained from inhibition or displacement.

Among the data in patent publication US20240190856A1, “MELANOCORTIN-4 RECEPTOR AGONIST” (LG CHEM, LTD., priority 2021, published 2024) are EC50 and Ki values, retold here.

Assay [1] addresses T1, MC4R (melanocortin-4 receptor) (Homo sapiens, UniProt P32245).
T1 construct: expressed in transfected cells
The assay can be described thus: Luciferase assay (CRE-LUC, HEK MC4R-Luc cells). The class given is cell-based. To be noted: 5 h incubation, concentration inducing 50% of each agonist's own maximum luminescence. The protocol:
In order to measure the agonist ability against MC4R (melanocortin-4 receptor), a cell line that permanently expresses the luciferase gene (CRE-LUC) under the control of MC4R and CRE (cAMP response element) was established. After a mammalian cell expression vector (pCDNA3 (Neo)) (Invitrogen) containing the MC4R gene was prepared, human embryonic kidney (HEK) cell lines were transformed by using Lipofectamine 2000 (Invitrogen) together with a vector (pCRE-Luc)(Stratagen) expressing a luciferase gene (CRE-LUC) under the control of a cAMP response element (CRE). Transformed cell lines (HEK MC4R-Luc) were incubated in a 37° C. incubator in the presence of 5% CO2 for 24 hours by using Dulbecco's Modified Eagles Medium (DMEM) containing 10% Heat-Inactivated Fetal Bovine Serum (GIBCO/BRL). The cell lines were incubated for four days in the presence of Dulbecco's Modified Eagles Medium (DMEM) containing 10 ml of selection medium (10% Heat-Inactivated Fetal Bovine Serum (GIBCO/BRL), 100 unit/ml of penicillin (GIBCO/BRL), 100 unit/ml of streptomycin (GIBCO/BRL), 800 μg/ml of Geneticin (G418) (GIBCO/BRL). The process of removing cells killed by the selection medium by replacing the medium with 10 ml of a new selection medium was repeated three times, once every 4 days. Individual colonies formed by the finally selected and propagated clones were transferred under a microscope to a 24-well cell culture plate containing 1 ml of selection medium per well and incubated for 4 days. Forskolin (SIGMA) was treated to a final concentration of 10 μM, and then incubated for five hours in a 37° C. incubator in the presence of 5% CO2. Each well was treated with 50 μl of a Bright-Glo luciferase reagent (Promega) and left at room temperature for 15 minutes, and then the luminescence of each well was measured by using a luminometer (Victor).
HEK MC4R-Luc cells were added to each well of a 96-well luminometer cell culture plate (Costar) to a size of 2.5×10^4 cells in 100 μl of a culture medium and then incubated in a 37° C. incubator in the presence of 6% CO2 for 18 hours. […] Each well was treated with 50 μl of a Bright-Glo luciferase reagent (Promega) and left at room temperature for five minutes, and then the luminescence of each well was measured by using a luminometer (Victor). […] EC0.5 MSH is expressed as a concentration that induces 50% of the maximum amount of luminescence that can be induced by NDP-α-MSH, and EC50 is expressed as a concentration that induces 50% of the maximum amount of luminescence that can be induced by each agonist. The measurements were measured using statistical software (Prizm).

Another assay addresses MC4R (Homo sapiens, UniProt P32245). As to the kind of experiment: Binding affinity (125I-NDP-α-MSH displacement, membranes of HEK-293 cells expressing MC4R). Also noted: expressed in transfected cells; host or cells: HEK-293 cells, membrane preparation. To be noted: 0.02 nM 125I-NDP-α-MSH, 37° C. for two hours, pH 7.0. An excerpt: Five subtypes of melanocortin receptor (MCR) in vivo are known, and it is known that MC4R, which is Subtype 4, is involved in energy metabolism and weight control. Since other MCR subtypes are involved in the regulation of various functions in vivo such as skin pigmentation, energy homeostasis, and exocrine functions, securing selectivity for MC4R of MC4R agonist compounds is very important in preventing possible side effects in the future. Therefore, the receptor binding abilities of MC4R agonists for each MCR subtype were measured.
After the CHO-K 1 cell line expressing human recombinant MC1R and the HEK-293 cell lines expressing MC3R, MC4R and MC5R were established, membranes were collected from each cell line. In a 96-well cell culture plate, 3 μg MC1R membrane and 0.04 nM ^125I-NDP-α-MSH per well were reacted at 37° C. for two hours. 3 μg MC3R and MC5R membrane and 0.035 nM ^125I-NDP-α-MSH were reacted at 37° C. for one hour, and […] MC4R membrane and 0.02 nM ^125I-NDP-α-MSH were reacted at 37° C. for two hours. At this time, 25 mM HEPES-KOH adsorption buffer (pH 7.0) containing MCR agonist diluted at each step concentration was added to each well and reacted. The reacted solution was transferred to a filter and washed with an adsorption buffer, and then radioactivity was measured. The value excluding the non-specific binding amount in the presence of 1 μM (MC1R) and 3 μM (MC3R, MC4R, MC5R) of NDP-α-MSH from each total binding amount was used as specific binding amounts of ^125I-NDP-α-MSH. The degree to which the ^125I-NDP-a-MSH specific binding was inhibited by the agonist diluted at each step concentration was measured. IC50 was expressed as the concentration of each agonist that inhibited specific binding of 50% of ^125I-NDP-α-MSH.
Tables 4-1 and 4-2 show the results of measuring the binding of melanocortin receptors of the compounds obtained by the above experiment in Ki (nM) units.

The structures appear in SMILES notation. Counter-ions that a name gives are not always drawn.

T1 sequence (P32245 whole entry, species assumed): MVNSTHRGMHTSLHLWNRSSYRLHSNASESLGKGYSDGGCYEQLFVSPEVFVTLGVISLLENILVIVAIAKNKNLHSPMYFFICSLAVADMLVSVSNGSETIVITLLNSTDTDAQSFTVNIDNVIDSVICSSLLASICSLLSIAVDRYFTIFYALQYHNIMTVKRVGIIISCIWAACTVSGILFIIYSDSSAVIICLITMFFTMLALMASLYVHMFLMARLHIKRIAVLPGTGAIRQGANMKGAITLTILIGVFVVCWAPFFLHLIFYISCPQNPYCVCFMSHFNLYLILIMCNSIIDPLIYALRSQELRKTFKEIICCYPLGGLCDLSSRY
Chain of MC4R (P32245 whole entry): as the sequence (P32245 whole entry, species assumed) above

On to `CC(=O)N(C1CCC(C)(C)CC1)[C@H]1C[C@@H](C(=O)N2CCOCC2)N(C(=O)[C@@H]2CN(C(C)(C)C)C[C@H]2c2ccc(F)cc2F)C1` [Comparative Example 1 (A95), N-((3S,5S)-1-((3S,4R)-1-(tert-butyl)-4-(2,4-difluorophenyl)pyrrolidine-3-carbonyl)-5-(morpholine-4-carbonyl)pyrrolidin-3-yl)-N-(4,4-dimethylcyclohexyl)acetamide hydrochloride, reference compound], for which the EC50 in assay [1] came to 14.7 nM. Moreover, the Ki at MC4R (Table 4-1) amounted to 1450 nM; on MC4R (Table 4-2), 1780 nM.

For `CC(=O)N(C1CCC(C)(C)CC1)[C@H]1C[C@@H](C(=O)N2CCOCC2)N(C(=O)[C@@H]2CN(C(C)(C)C)C[C@H]2c2ccc(Cl)cc2)C1` [Comparative Example 2 (A96), N-((3S,5S)-1-((3S,4R)-1-(tert-butyl)-4-(4-chlorophenyl)pyrrolidine-3-carbonyl)-5-(morpholine-4-carbonyl)pyrrolidin-3-yl)-N-(4,4-dimethylcyclohexyl)acetamide hydrochloride, reference compound], in assay [1], the EC50 was found to be 5.61 nM. In addition, the Ki on MC4R (Table 4-1) is 410 nM; on MC4R (Table 4-2), 530 nM.

Consider `CC(C)C(=O)N(C1CCC(C)(C)CC1)[C@H]1C[C@@H](C(=O)N2CCOCC2)N(C(=O)[C@@H]2CN(C(C)(C)C)C[C@H]2c2ccc(Cl)cc2)C1` [Example 5, N-((3S,5S)-1-((3S,4R)-1-(tert-butyl)-4-(4-chlorophenyl)pyrrolidine-3-carbonyl)-5-(morpholine-4-carbonyl)pyrrolidin-3-yl)-N-(4,4-dimethylcyclohexyl)isobutyramide hydrochloride], for which the EC50 in assay [1] was found to be 3.82 nM. This lies in the single-digit nanomolar range.
